The subject of the assay is nude mice, LX-1 lung xenograft intrarenal, tumor weight T/C. Put plainly: NCI In Vivo Anticancer Drug Screen. Data for tumor model Human Lung LX-1 Xenograft (intrarenal inoculation) in NU/NU Swiss (nude) mice. The note with it: endpoint: mean tumor weight change, higher = larger tumour. The method, boiled down:
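Tumor-bearing mice receive test compound or vehicle; tumor size is then measured in each group. The treated value is divided by the vehicle value to give T/C.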
(In general: Xenograft models place foreign cells or tissue in a host animal.)

The mark [1] stands for this setting: dose: 37.5 mg/kg/injection, schedule: Q04DX003 (sc), vehicle: Klucel (hydroxypropylcellulose) (HPC).
Where [2] appears, read: dose: 75.0 mg/kg/injection, schedule: Q04DX003 (sc), vehicle: Klucel (hydroxypropylcellulose) (HPC).
Setting [3] is: dose: 300.0 mg/kg/injection, schedule: Q04DX003 (sc), vehicle: saline.
The mark [4] stands for this setting: dose: 50.0 mg/kg/injection, schedule: Q01DX010 (sc), vehicle: water.
Where [5] appears, read: dose: 100.0 mg/kg/injection, schedule: Q01DX010 (sc), vehicle: water.

Values joined by “and” are separate entries in the source; they are usually repeats but may differ in a detail not shown here. Equal values may be shown once. Results filed as inconclusive are left out.

Turning to `COc1cc2cc[n+](C)c(Cc3ccccc3)c2cc1OC`, the T/C is 88 % of control under setting [1] and 115 % of control under setting [2].
As to `CCCCCCCCCCCCSC1=C(Cl)C(=O)C(OC)=C(OC)C1=O`, the T/C is 71 % of control (dose: 75.0 mg/kg/injection, schedule: Q04DX003 (sc), vehicle: saline with Tween-80) and 81 % of control (dose: 150.0 mg/kg/injection, schedule: Q04DX003 (sc), vehicle: saline with Tween-80).
Consider `CN(C)CC(Cl)CCl` (configuration not stated), for which, under setting [3], the T/C is 49 % of control.
With `CCOC(=O)C1=C(C#N)C2(CCC(OCc3ccccc3)CC2)C(=O)O1` (configuration not stated), the T/C was 106 % of control (dose: 300.0 mg/kg/injection, schedule: Q04DX003 (sc), vehicle: suspension in saline); 111 % of control (dose: 600.0 mg/kg/injection, schedule: Q04DX003 (sc), vehicle: suspension in saline); 77 % of control (dose: 1200.0 mg/kg/injection, schedule: Q04DX003 (sc), vehicle: suspension in saline).
Regarding `O=C1C(=O)c2ccccc2C(O)=C1CC=C(Cl)Cl`, the T/C is 255 % of control (dose: 25.0 mg/kg/injection, schedule: Q01DX010 (sc), vehicle: water); 95 % of control under setting [4]; 117 % of control under setting [5]; 158 % of control (dose: 200.0 mg/kg/injection, schedule: Q01DX010 (sc), vehicle: water).
On to `O=Cc1ccc(C(Cl)(Cl)Cl)cc1`, for which the T/C runs as follows: (dose: 50.0 mg/kg/injection, schedule: Q01DX010 (sc), vehicle: saline with Tween-80) 176 % of control; (dose: 200.0 mg/kg/injection, schedule: Q01DX010 (sc), vehicle: saline with Tween-80) 179 % of control; (dose: 800.0 mg/kg/injection, schedule: Q01DX010 (sc), vehicle: saline with Tween-80) 77 % of control.
As for `CC(=O)NCCCCCCNC(C)=O`, the T/C runs as follows: (dose: 200.0 mg/kg/injection, schedule: Q01DX010 (sc), vehicle: saline) 106 % of control; (dose: 400.0 mg/kg/injection, schedule: Q01DX010 (sc), vehicle: saline) 45 % of control; (dose: 800.0 mg/kg/injection, schedule: Q01DX010 (sc), vehicle: saline) 105 % of control and 114 % of control; (dose: 3200.0 mg/kg/injection, schedule: Q01DX010 (sc), vehicle: saline) 96 % of control.
On to `O=C1c2ccccc2C(=O)c2c3c(cc(NCCNCCO)c21)N(CCO)CCN3`, for which the T/C is 122 % of control (dose: 200.0 mg/kg/injection, schedule: Q04DX003 (sc), vehicle: DMSO); 86 % of control (dose: 400.0 mg/kg/injection, schedule: Q04DX003 (sc), vehicle: DMSO); 83 % of control (dose: 800.0 mg/kg/injection, schedule: Q04DX003 (sc), vehicle: DMSO).
Turning to `Oc1ccc(CCl)c2cccnc12`, the T/C (dose: 75.0 mg/kg/injection, schedule: Q04DX003 (sc), vehicle: saline) is 91 % of control; the T/C (dose: 150.0 mg/kg/injection, schedule: Q04DX003 (sc), vehicle: saline) was 78 % of control; the T/C under setting [3] is 46 % of control.
As for `COc1cccc2c1C(=O)c1c(O)c3c(c(O)c1C2=O)C[C@@](O)(/C(C)=N/NC(=O)c1ccccc1)C[C@@H]3OC1CC(N)C(O)C(C)O1` (some centres not stated), the T/C by setting is: (dose: 2.5 mg/kg/injection, schedule: Q04DX003 (sc), vehicle: water) 113 % of control; (dose: 10.0 mg/kg/injection, schedule: Q04DX003 (sc), vehicle: water) 68 % of control and 71 % of control and 93 % of control; (dose: 18.75 mg/kg/injection, schedule: Q04DX003 (sc), vehicle: water) 57 % of control; (dose: 20.0 mg/kg/injection, schedule: Q04DX003 (sc), vehicle: water) 69 % of control and 79 % of control and 87 % of control; (dose: 37.5 mg/kg/injection, schedule: Q04DX003 (sc), vehicle: water) 36 % of control; (dose: 40.0 mg/kg/injection, schedule: Q04DX003 (sc), vehicle: water) 71 % of control. In addition, the T/C is 18 % of control (dose: 75.0 mg/kg/injection, schedule: Q04DX003 (sc), vehicle: water) and 79 % of control (dose: 80.0 mg/kg/injection, schedule: Q04DX003 (sc), vehicle: water).
In the case of `C[C@]12CC[C@@H]3c4ccc(O)cc4CC[C@H]3[C@@H]1CC[C@@H]2O`, the T/C by setting is: (dose: 300.0 mg/kg/injection, schedule: Q04DX003 (sc), vehicle: Klucel (hydroxypropylcellulose) (HPC)) 120 % of control; (dose: 600.0 mg/kg/injection, schedule: Q04DX003 (sc), vehicle: Klucel (hydroxypropylcellulose) (HPC)) 101 % of control; (dose: 1200.0 mg/kg/injection, schedule: Q04DX003 (sc), vehicle: Klucel (hydroxypropylcellulose) (HPC)) 103 % of control; (dose: 2400.0 mg/kg/injection, schedule: Q04DX003 (sc), vehicle: Klucel (hydroxypropylcellulose) (HPC)) 53 % of control.
As to `CCN=C=NCCCN(C)C`, the T/C by setting is: (dose: 25.0 mg/kg/injection, schedule: Q04DX003 (sc), vehicle: saline) 99 % of control; (dose: 50.0 mg/kg/injection, schedule: Q04DX003 (sc), vehicle: saline) 102 % of control; (dose: 100.0 mg/kg/injection, schedule: Q04DX003 (sc), vehicle: saline) 84 % of control.
In the case of `Cc1cc(NCCCCCCCCNc2cc(C)nc3cc(N(C)C)ccc23)c2ccc(N(C)C)cc2n1`, the T/C is, setting by setting: (dose: 18.75 mg/kg/injection, schedule: Q01DX010 (sc), vehicle: saline with Tween-80) 56 % of control; (dose: 37.5 mg/kg/injection, schedule: Q01DX010 (sc), vehicle: saline with Tween-80) 34 % of control and 45 % of control; (dose: 75.0 mg/kg/injection, schedule: Q04DX003 (sc), vehicle: distilled water + Tween-80 + alcohol) 42 % of control and 60 % of control; (dose: 150.0 mg/kg/injection, schedule: Q04DX003 (sc), vehicle: distilled water + Tween-80 + alcohol) 61 % of control and 72 % of control; (dose: 300.0 mg/kg/injection, schedule: Q04DX003 (sc), vehicle: distilled water + Tween-80 + alcohol) 33 % of control and 39 % of control; (dose: 600.0 mg/kg/injection, schedule: Q04DX003 (sc), vehicle: distilled water + Tween-80 + alcohol) 25 % of control.
Take `CCCCCCCCSC1=C(Cl)C(=O)C(OC)=C(OC)C1=O`: the T/C was 82 % of control (dose: 18.0 mg/kg/injection, schedule: Q04DX003 (sc), vehicle: saline with Tween-80); 81 % of control (dose: 36.0 mg/kg/injection, schedule: Q04DX003 (sc), vehicle: saline with Tween-80); 57 % of control (dose: 144.0 mg/kg/injection, schedule: Q04DX003 (sc), vehicle: saline with Tween-80).
Regarding `O=C(O)C1CSCN1` (configuration not stated), the T/C by setting is: under setting [4], 86 % of control; under setting [5], 68 % of control.
Take `C(CSC1=NCCN1)CSC1=NCCN1`: the T/C reads like this: (dose: 50.0 mg/kg/injection, schedule: Q01DX010 (sc), vehicle: saline) 156 % of control; (dose: 100.0 mg/kg/injection, schedule: Q01DX010 (sc), vehicle: saline) 81 % of control.
With `NC(=O)Oc1cccc(OC(N)=O)c1`, the T/C is, setting by setting: (dose: 300.0 mg/kg/injection, schedule: Q04DX003 (sc), vehicle: water) 105 % of control; (dose: 600.0 mg/kg/injection, schedule: Q04DX003 (sc), vehicle: water) 89 % of control; (dose: 1200.0 mg/kg/injection, schedule: Q04DX003 (sc), vehicle: water) 67 % of control; (dose: 2400.0 mg/kg/injection, schedule: Q04DX003 (sc), vehicle: water) 54 % of control.
On to `C[n+]1c2cc(N)ccc2cc2ccc(N)cc21`, for which the T/C (dose: 6.25 mg/kg/injection, schedule: Q01DX010 (sc), vehicle: saline) was 72 % of control.
On to `CN(C)c1ccc2c(N(C)C)cc(N(C)C)nc2c1`, for which the T/C runs as follows: (dose: 9.38 mg/kg/injection, schedule: Q04DX003 (sc), vehicle: Klucel (hydroxypropylcellulose) (HPC)) 102 % of control; (dose: 18.75 mg/kg/injection, schedule: Q04DX003 (sc), vehicle: Klucel (hydroxypropylcellulose) (HPC)) 123 % of control; under setting [1], 96 % of control; under setting [2], 154 % of control.

These data come from PubChem BioAssay AID264 (DTP/NCI, 2004).
